Results on five molecules are retold here after patent EP0335292A2, “2,6-Methano-1,3-benzodiazocines, a process for their preparation and their use as medicaments” (HOECHST-ROUSSEL PHARMACEUTICALS INCORPORATED, priority 1988, dated 1989).

Counter-ions that a name gives are not always drawn.

The subject of the test is mice. Description: modified phenyl-p-quinone writhing assay in mice (analgesia). The test is classed as in vivo. To be noted: Mus musculus, sc; read-out: Analgesic Activity (Inhibition of Writhing ED₅₀mg/kg,s.c.). How it is done:
The 2,6-methano-1,3-benzodiazocines of this invention are useful as analgetics due to their ability to alleviate pain in mammals. The procedure employed to determine analgetic activity is a modification of the phenyl-p-quinone writhing assay in mice, a standard assay for analgesia [Proc. Soc. Exptl. Bio. Med., 95 729(1957)]. Pursuant to the modified procedure, phenyl-p-benzoquinone (Eastman, 12.5 mg) is dissolved in 5 ml of 95% ethanol and the solution is diluted to a total volume of 100 ml with distilled water. The solution is administered to the subject mice intraperitoneally at a dose of 10 ml per kg of body weight. A characteristic "writhe", an inward rotation of one or more feet with twisting and turning of the trunk, drawing in of the abdominal wall, lordosis and arching of the back, is produced.
A total of 28 male mice (Charles River, CD-1), weighing 18 to 30 grams, are employed for a time response. The subject animals receive food and water ad libitum. Test compounds are dissolved in distilled water, or suspended in distilled water containing one drop of a suitable surfactant, such as Tween-80.
Four groups of five animals (20 animals) are given the test compound subcutaneously or orally (p.o.) at 15, 30, 45, and 60 minutes prior to administration of the phenyl-p-quinone. A control group (2 animals per group) receive an equal volume of the vehicle. After the administration of the phenyl-p-quinone, the mice are placed separately in one liter beakers, and after five minutes, are observed for ten minutes. The number of writhes for each animal is recorded. The following formula is used to compute the percent inhibition: […]
The time period with the greatest percent of inhibition is considered the peak time. A dose range determination is generally reserved for those compounds which inhibit [formula] writhing by greater than 65-70% at the screening dose. A dose range determination is run in the same manner as the time response except 10 animals per group are tested at the peak time of test drug activity. Fifty animals, four test drug groups, and a vehicle control are employed. Animals are dosed and tested in a randomized manner.
Background: Writhing tests count abdominal constrictions after an irritant is injected.
Take `CN1CCC2CC1N(C)c1c(Br)cc(O)cc12` (centres unmarked) [10-Bromo-1,2,3,4,5,6-hexahydro-1,3-dimethyl-2,6-methano-1,3-benzodiazocin-8-ol, hemi-fumarate]: the ED50 is 1.9 mg/kg.
In the case of `COc1ccc2c(c1)C1CCN(C)C(C1)N2C` (centres unmarked) [1,2,3,4,5,6-Hexahydro-8-methoxy-1,3-dimethyl-2,6-methano 1,3-benzodiazocine], the ED50 was 10.2 mg/kg.
For `CC(=O)Oc1ccc2c(c1)C1CCN(C)C(C1)N2C` (centres unmarked) [1,2,3,4,5,6-Hexahydro-1,3-dimethyl-2,6-methano-1,3-benzodiazocin-8-ol acetate, fumarate] the value was 0.74 mg/kg; for `CN1CCC2CC1N(C)c1ccc(O)cc12.O=C(O)/C=C/C(=O)O` (centres unmarked) [1,2,3,4,5,6-Hexahydro-1,3-dimethyl-2,6-methano-1,3-benzodiazocin-8-ol fumarate], 0.7 mg/kg.
For `CC(C)=CCN1CCC2(C)c3cc(O)ccc3CC1C2C` (centres unmarked) [pentazocine, reference compound] the value was 1.3 mg/kg.
